In patent publication US20130316042A1, “ENHANCED RELEASE OF LIPOPHILIC INGREDIENTS FROM CHEWING GUM WITH HYDROCOLLOIDS” (CADBURY ADAMS MEXICO, S. DE R.L. DE C.V., priority 2010, published 2013):

Test: logP (octanol/water) at 25° C.
Type: physicochemical
Description: In one aspect, the lipophilic ingredient is one having a partition coefficient between octanol and water (log P (octanol/water) at 25° C.) of greater than or equal to 1.5, specifically greater than or equal to 2.0, more specifically greater than or equal to 2.5, yet more specifically greater than or equal to 3.0, still yet more specifically greater than or equal to 3.5, and more specifically greater than or equal to 4.0. The partition coefficient of material can be determined experimentally or calculated using commercially available software.

logP | logP (octanol/water) at 25° C. | Compound
2.48 |  | CNC(=O)C(C)(C(C)C)C(C)C [N,2,3-trimethyl-2-propan-2-ylbutanamide]
3.6 |  | CCNC(=O)C(CC)(C(C)C)C(C)C [N-ethyl-2,2-diisopropylbutanamide]
3.81 |  | CCNC(=O)C1CC(C)CCC1C(C)C (stereo not shown) [N-ethyl-p-menthane-3-carboxamide (WS-3), N-ethyl-p-menthane-3-carboxamide]
3.38 |  | CCOC(=O)CNC(=O)C1CC(C)CCC1C(C)C (stereo not shown) [ethyl 2-[(5-methyl-2-propan-2-ylcyclohexanecarbonyl)amino]acetate]
3.4 |  | CC1CCC(C(C)C)C(O)C1 (stereo not shown) [menthol, reference compound]
 | 4.12 | CC(C)[C@@H]1CC[C@@H](C)C[C@H]1OC(=O)CCCC(=O)O [monomenthyl glutarate]
3.4 |  | C/C=C/C=C\CC/C=C/C(=O)NCC(C)C [spilanthol, N-isobutyl-2E,6Z,8E-decatrienamide]
